Experimental data reported in patent US8871753B2, “Macrocyclic compounds and their use as kinase inhibitors” (Incyte Corporation, priority 2008, dated 2014).
pIC50: −log10 of the molar value. Counter-ions that a name gives are not always drawn. Like-named read-outs stand apart in the source and are kept apart here.

How the values were obtained:
Type in all cases: biochemical
[1] = target: T1, human JAK2 (a.a. 828-1132) (Homo sapiens, UniProt O60674); assay: In vitro JAK kinase assay (HTRF, phosphorylation of a biotinylated peptide), JAK2
T1 construct: JAK2 (a.a. 828-1132); His tag (N); made in house; host or cells: insect cells (baculovirus)
Method in brief: (§1)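 Phosphorylation of a biotinylated peptide by the JAK kinase domain, detected by HTRF with Eu-Py20 and SA-APC. ATP was 90 μM for JAK1, 30 μM for JAK2 and 3 μM for JAK3. Reactions ran 1 h at room temperature and were stopped with EDTA, followed by 40 min antibody binding.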

TYK2 = TYK2 (Homo sapiens, UniProt P29597); assay: TYK2 kinase inhibition (Table A1)
[2] = target: T2, human JAK3 (a.a. 781-1124) (Homo sapiens, UniProt P52333); assay: In vitro JAK kinase assay (HTRF, phosphorylation of a biotinylated peptide), JAK3
T2 construct: JAK3 (a.a. 781-1124); His tag (N); made in house; host or cells: insect cells (baculovirus)
Method in brief: as §1

[3] = target: T3, human JAK1 (a.a. 837-1142) (Homo sapiens, UniProt P23458); assay: In vitro JAK kinase assay (HTRF, phosphorylation of a biotinylated peptide), JAK1; settings: read-out: JAK1 IC50
T3 construct: human JAK1 (a.a. 837-1142); His tag (N); made in house; host or cells: insect cells (baculovirus)
Method in brief: as §1

[4] = target: T4, Recombinant Human Anaplastic Lymphoma Kinase (Homo sapiens, UniProt Q9UM73); assay: ALK HTRF kinase assay
T4 construct: purchased Invitrogen, Carlsbad, Calif
Method in brief: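 IC50 was obtained from a logistic fit of signal versus log inhibitor concentration, using pre- and post-transition baselines and a Hill slope. The signal reported tyrosine phosphorylation of a biotinylated peptide by recombinant human kinase, detected as Eu-to-APC energy transfer.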

[5] = percentage inhibition of the example compound at a concentration of 500 nM or 1 mM (not specified which)
[6] = method AA1 (30 μM ATP) or AA2 (1000 μM ATP), not stated per value
[7] = method AA1 (3 μM ATP) or AA2 (1000 μM ATP), not stated per value
[8] = method AA1 (90 μM ATP) or AA2 (1000 μM ATP), not stated per value
[9] = compound at 500 nM or 1 mM, 90 μM ATP
[10] = compound at a concentration of 500 nM or 1 mM (not specified), cells shown as percentage

T4 sequence (Q9UM73 19-1620): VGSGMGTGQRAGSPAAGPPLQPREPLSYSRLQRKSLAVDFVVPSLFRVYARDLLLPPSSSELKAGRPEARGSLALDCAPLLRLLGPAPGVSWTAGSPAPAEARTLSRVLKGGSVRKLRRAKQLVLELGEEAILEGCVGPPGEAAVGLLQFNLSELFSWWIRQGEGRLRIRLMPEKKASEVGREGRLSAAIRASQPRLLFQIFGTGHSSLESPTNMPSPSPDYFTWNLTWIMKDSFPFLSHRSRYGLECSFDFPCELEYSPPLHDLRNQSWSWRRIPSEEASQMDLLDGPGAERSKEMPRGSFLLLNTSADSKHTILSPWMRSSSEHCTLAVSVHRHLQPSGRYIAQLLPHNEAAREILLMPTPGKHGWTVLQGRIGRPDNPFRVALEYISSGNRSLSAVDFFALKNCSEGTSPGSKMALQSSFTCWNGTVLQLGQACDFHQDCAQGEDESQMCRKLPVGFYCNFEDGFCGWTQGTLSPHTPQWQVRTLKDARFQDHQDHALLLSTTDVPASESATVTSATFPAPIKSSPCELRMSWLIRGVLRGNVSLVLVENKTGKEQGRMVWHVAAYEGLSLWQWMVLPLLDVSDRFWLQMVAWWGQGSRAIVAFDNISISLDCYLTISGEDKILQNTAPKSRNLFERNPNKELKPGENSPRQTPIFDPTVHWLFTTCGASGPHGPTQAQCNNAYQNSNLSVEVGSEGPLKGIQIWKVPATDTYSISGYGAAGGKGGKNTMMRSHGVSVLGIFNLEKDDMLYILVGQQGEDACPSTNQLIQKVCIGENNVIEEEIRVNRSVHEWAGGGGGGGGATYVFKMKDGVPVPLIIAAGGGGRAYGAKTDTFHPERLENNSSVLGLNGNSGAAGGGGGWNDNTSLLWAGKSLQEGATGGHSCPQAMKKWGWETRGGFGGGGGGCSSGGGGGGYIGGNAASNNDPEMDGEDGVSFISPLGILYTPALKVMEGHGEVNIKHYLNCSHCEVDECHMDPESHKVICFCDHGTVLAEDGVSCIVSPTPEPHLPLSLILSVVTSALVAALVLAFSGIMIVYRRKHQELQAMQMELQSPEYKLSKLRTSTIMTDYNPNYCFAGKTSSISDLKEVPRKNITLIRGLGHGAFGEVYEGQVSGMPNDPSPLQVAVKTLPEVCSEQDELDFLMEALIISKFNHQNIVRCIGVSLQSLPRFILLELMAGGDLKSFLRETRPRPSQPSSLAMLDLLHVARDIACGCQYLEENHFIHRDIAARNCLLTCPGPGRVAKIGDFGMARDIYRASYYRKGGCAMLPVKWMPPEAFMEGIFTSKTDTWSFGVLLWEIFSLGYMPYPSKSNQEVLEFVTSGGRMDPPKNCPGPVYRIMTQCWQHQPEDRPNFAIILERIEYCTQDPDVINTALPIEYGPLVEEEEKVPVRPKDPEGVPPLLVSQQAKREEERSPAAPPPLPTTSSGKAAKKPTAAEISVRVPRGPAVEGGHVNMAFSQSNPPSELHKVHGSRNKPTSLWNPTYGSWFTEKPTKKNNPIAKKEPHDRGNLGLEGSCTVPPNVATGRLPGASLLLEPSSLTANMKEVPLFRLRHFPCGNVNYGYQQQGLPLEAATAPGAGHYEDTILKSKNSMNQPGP
T2 sequence (P52333 781-1124): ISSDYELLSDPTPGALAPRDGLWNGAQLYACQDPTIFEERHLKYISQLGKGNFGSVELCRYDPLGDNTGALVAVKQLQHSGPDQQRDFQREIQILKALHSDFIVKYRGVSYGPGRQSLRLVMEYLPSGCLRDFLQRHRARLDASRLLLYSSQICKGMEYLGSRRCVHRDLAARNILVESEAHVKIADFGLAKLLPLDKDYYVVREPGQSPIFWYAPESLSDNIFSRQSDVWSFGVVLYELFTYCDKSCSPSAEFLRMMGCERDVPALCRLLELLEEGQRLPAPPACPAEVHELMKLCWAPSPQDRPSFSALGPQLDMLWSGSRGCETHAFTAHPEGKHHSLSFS
T3 sequence (P23458 849-1154): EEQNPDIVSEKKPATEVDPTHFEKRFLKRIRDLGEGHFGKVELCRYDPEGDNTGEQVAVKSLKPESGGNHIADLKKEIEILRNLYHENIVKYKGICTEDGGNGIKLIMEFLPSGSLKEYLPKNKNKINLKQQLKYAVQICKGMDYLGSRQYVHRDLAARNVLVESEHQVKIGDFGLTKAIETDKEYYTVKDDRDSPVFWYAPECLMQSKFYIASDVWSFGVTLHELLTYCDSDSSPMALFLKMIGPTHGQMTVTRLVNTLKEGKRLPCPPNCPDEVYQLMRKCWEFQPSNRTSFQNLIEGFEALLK
T1 sequence (O60674 828-1132): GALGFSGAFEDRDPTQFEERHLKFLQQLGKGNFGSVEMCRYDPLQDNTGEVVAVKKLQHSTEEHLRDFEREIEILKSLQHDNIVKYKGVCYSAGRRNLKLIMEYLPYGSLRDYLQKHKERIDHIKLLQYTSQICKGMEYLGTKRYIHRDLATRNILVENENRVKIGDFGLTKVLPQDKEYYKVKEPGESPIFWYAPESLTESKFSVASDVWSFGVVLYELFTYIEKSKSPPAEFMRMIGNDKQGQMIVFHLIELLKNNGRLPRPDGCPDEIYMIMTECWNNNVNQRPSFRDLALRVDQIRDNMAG
Chain of TYK2 (P29597 whole entry): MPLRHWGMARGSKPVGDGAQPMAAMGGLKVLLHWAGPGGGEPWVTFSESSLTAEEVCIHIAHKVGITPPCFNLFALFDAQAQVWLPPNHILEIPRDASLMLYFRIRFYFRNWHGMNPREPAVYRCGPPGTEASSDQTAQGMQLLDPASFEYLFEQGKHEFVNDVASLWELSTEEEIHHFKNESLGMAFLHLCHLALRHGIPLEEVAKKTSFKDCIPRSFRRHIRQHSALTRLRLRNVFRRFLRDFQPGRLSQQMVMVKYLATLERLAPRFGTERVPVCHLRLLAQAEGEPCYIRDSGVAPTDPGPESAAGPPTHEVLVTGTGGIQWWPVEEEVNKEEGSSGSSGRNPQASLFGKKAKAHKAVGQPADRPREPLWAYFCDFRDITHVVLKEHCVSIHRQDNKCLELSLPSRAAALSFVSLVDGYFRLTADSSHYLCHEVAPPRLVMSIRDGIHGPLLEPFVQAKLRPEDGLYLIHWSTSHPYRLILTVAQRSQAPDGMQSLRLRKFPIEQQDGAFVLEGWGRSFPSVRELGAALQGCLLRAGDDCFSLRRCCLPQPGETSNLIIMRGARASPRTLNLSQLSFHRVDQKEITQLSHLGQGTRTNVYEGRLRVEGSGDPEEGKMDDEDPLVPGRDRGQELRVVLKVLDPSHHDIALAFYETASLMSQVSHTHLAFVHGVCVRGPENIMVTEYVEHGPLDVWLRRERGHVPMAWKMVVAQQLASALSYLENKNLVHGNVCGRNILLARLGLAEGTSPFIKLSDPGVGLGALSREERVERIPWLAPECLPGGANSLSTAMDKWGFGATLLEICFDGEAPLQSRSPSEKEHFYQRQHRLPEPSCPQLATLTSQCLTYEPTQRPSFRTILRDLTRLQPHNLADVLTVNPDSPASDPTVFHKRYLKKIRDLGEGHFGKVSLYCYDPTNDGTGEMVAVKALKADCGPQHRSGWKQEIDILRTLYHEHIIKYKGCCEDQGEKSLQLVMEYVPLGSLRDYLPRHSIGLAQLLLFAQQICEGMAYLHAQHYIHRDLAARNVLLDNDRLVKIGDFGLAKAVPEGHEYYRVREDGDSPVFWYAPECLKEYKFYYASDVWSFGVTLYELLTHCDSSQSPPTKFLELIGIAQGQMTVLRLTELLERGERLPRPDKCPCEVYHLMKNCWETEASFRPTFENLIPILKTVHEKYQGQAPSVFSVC

| pIC50 ([1]; Table B1) | pIC50 (TYK2; Table B1) | pIC50 ([2]; Table B1) | pIC50 ([3]; Table B1) | pIC50 [1, 6] | pIC50 (TYK2) | pIC50 [2, 7] | pIC50 [3, 8] | ALK % of inhibition at a concentration of 500 nM or 1 mM [4, 9] | SMILES | other results |
| --- | --- | --- | --- | --- | --- | --- | --- | --- | --- | --- |
| 7.39 | 6.74 | < 6.40 | 8.92 | – | – | – | – | – | CN(Cc1ccc2cc1CCc1cncc(c1)Nc1ncc(Cl)c(n1)N2)CC1CCN(S(=O)(=O)c2ccccc2C#N)CC1 [Example B340, 2-[(4-{[{[6-Chloro-2,4,8,18,22-pentaazatetracyclo[14.3.1.1(3,7).1(9,13)]docosa-1(20),3(22),4,6,9(21),10,12,16,18-nonaen-12-yl]methyl}(methyl)amino]methyl}piperidin-1-yl)sulfonyl]benzonitrile tris(trifluoroacetate)] | ALK % of inhibition at a concentration of 500 nM or 1 mM [4, 5]: 24% |
| < 6.40 | 6.63 | < 6.40 | 7.33 | – | – | – | – | – | O=C(Nc1ccc2cc1CCc1cncc(c1)Nc1ncc(Cl)c(n1)N2)N1CCN2CCCC2C1 (stereo not drawn) [Example B315, N-[6-Chloro-2,4,8,18,22-pentaazatetracyclo[14.3.1.1(3,7).1(9,13)]docosa-1(20),3(22),4,6,9(21),10,12,16,18-nonaen-12-yl]hexahydropyrrolo[1,2-a]pyrazine-2(1H)-carboxamide tris(trifluoroacetate)] | ALK % of inhibition at a concentration of 500 nM or 1 mM [4, 5]: 50% |
| 6.76 | 6.69 | 6.74 | 7.15 | – | – | – | – | – | O=C(Nc1cc2cc(c1)Nc1nc(ncc1Cl)Nc1cccc(c1)CC2)Nc1ccccc1F [Example B213, N-[6-Chloro-2,4,8,22-tetraazatetracyclo[14.3.1.1(3,7).1(9,13)]docosa-1(20),3(22),4,6,9(21),10,12,16,18-nonaen-11-yl]-N′-(2-fluorophenyl)urea trifluoroacetate] | ALK % of inhibition at a concentration of 500 nM or 1 mM [4, 10]: 11% |
| < 6.70 | < 6.70 | < 6.70 | 7.00 | – | – | – | – | – | O=C(Nc1ccc2cc1CCc1cncc(c1)Nc1ncc(Cl)c(n1)N2)N1CCNCC1 [Example B285, N-[6-Chloro-2,4,8,18,22-pentaazatetracyclo[14.3.1.1(3,7).1(9,13)]docosa-1(20),3(22),4,6,9(21),10,12,16,18-nonaen-12-yl]piperazine-1-carboxamidetrihydrochloride] | ALK % of inhibition at a concentration of 500 nM or 1 mM [4, 10]: 38% |
| 6.43 | 6.39 | < 6.00 | 7.14 | – | – | – | – | – | CN(C(=O)Nc1ccc2cc1CCc1cncc(c1)Nc1ncc(Cl)c(n1)N2)[C@H]1CCN(Cc2ccccc2)C1 [Example B284, N-[(3S)-1-Benzylpyrrolidin-3-yl]-N′-[6-chloro-2,4,8,18,22-pentaazatetracyclo[14.3.1.1(3,7).1(9,13)]docosa-1(20),3(22),4,6,9(21),10,12,16,18-nonaen-12-yl]-N-methylurea] | ALK % of inhibition at a concentration of 500 nM or 1 mM [4, 10]: 25% |

Continued, molecule first:

| SMILES | pIC50 ([1]; Table B1) | pIC50 (TYK2; Table B1) | pIC50 ([2]; Table B1) | pIC50 ([3]; Table B1) | pIC50 [1, 6] | pIC50 (TYK2) | pIC50 [2, 7] | pIC50 [3, 8] | ALK % of inhibition at a concentration of 500 nM or 1 mM [4, 9] | other results |
| --- | --- | --- | --- | --- | --- | --- | --- | --- | --- | --- |
| O=C(CC1CCN(S(=O)(=O)c2ccco2)CC1)Nc1ccc2cc1CCc1cccc(c1)Nc1ncc(Cl)c(n1)N2 [Example A211, N-[6-Chloro-2,4,8,22-tetraazatetracyclo[14.3.1.1(3,7).1(9,13)]docosa-1(20),3(22),4,6,9(21),10,12,16,18-nonaen-12-yl]-2-[1-(2-furylsulfonyl)piperidin-4-yl]acetamide trifluoroacetate] | – | – | – | – | 7.18 | 6.82 | < 6.70 | 7.92 | 37% | – |
| NS(=O)(=O)N1CC[C@@H](C(=O)Nc2ccc3cc2CCc2cccc(c2)Nc2ncc(Cl)c(n2)N3)C1 [Example A74, (3R)-1-(Aminosulfonyl)-N-[6-chloro-2,4,8,22-tetraazatetracyclo[14.3.1.1(3,7).1(9,13)]docosa-1(20),3(22),4,6,9(21),10,12,16,18-nonaen-12-yl]pyrrolidine-3-carboxamide trifluoroacetate] | – | – | – | – | 8.52 | 7.77 | 8.48 | 8.22 | 48% | – |
| O=C(CC1CCN(C(=O)c2cnoc2C2CC2)CC1)Nc1ccc2cc1CCc1cncc(c1)Nc1ncc(Cl)c(n1)N2 [Example A213, N-[6-Chloro-2,4,8,18,22-pentaazatetracyclo[14.3.1.1(3,7).1(9,13)]docosa-1(20),3(22),4,6,9(21),10,12,16,18-nonaen-12-yl]-2-{1-[(5-cyclopropylisoxazol-4-yl)carbonyl]piperidin-4-yl}acetamide bis(trifluoroacetate)] | – | – | – | – | < 6.70 | < 6.70 | < 6.70 | 7.24 | 27% | – |
| Clc1cnc2nc1Nc1cccc(c1)CSCc1cccc(c1)N2 [Example D20, 6-Chloro-15-thia-2,4,8,23-tetraazatetracyclo[15.3.1.1(3,7).1(9,13)]tricosa-1(21),3(23),4,6,9(22),10,12,17,19-nonaene trifluoroacetate] | – | – | – | – | – | – | – | – | – | pIC50 ([1]; Table D1): 7.49; pIC50 (TYK2; Table D1): 6.99; pIC50 ([2]; Table D1): 7.06; pIC50 ([3]; Table D1): 7.39; pIC50 ([4]; Table D1, 90 μM ATP): 6.22 |
| O=C(CC1CCN(c2nncs2)CC1)Nc1ccc2cc1CCc1cncc(c1)Nc1ncc(Cl)c(n1)N2 [Example A174, tris(trifluoroacetate)] | – | – | – | – | 6.91 | 7.14 | < 6.00 | 8.39 | 33% | – |
| Cn1ccc2c(NC(=O)N3CCC(C(=O)Nc4ccc5cc4CCc4cccc(c4)Nc4ncc(Cl)c(n4)N5)CC3)cccc21 [Example A41, N(4)-[6-Chloro-2,4,8,22-tetraazatetracyclo[14.3.1.1(3,7).1(9,13)]docosa-1(20),3(22),4,6,9(21),10,12,16,18-nonaen-12-yl]-N(1)-(1-methyl-1H-indol-4-yl)piperidine-1,4-dicarboxamide trifluoroacetate] | – | – | – | – | 7.92 | 6.99 | 6.80 | 8.24 | 58% | – |
| O=C(c1cc2cc(c1)OCCSc1cccc(c1)Nc1nc(ncc1Cl)N2)N1CCOCC1 [Example D52, trifluoroacetate] | – | – | – | – | – | – | – | – | – | pIC50 ([1]; Table D1): 8.92; pIC50 (TYK2; Table D1): 8.36; pIC50 ([2]; Table D1): 7.89; pIC50 ([3]; Table D1): 8.82; pIC50 ([4]; Table D1, 90 μM ATP): 6.38 |
| O=C(CC1CCN(C(=O)c2ccncc2)CC1)Nc1ccc2cc1CCc1cncc(c1)Nc1ncc(Cl)c(n1)N2 [Example A189, N-[6-Chloro-2,4,8,18,22-pentaazatetracyclo[14.3.1.1(3,7).1(9,13)]docosa-1(20),3(22),4,6,9(21),10,12,16,18-nonaen-12-yl]-2-(1-isonicotinoylpiperidin-4-yl)acetamide tris(trifluoroacetate)] | – | – | – | – | < 6.70 | < 6.70 | < 6.70 | 6.94 | 21% | – |
| Cc1cc(N2CCOCC2)c2cc1Nc1ncc(Cl)c(n1)Nc1cccc(c1)CC2 [Example A6, 6-Chloro-19-methyl-17-morpholin-4-yl-2,4,8,22-tetraazatetracyclo[14.3.1.1(3,7).1(9,13)]docosa-1(20),3(22),4,6,9(21),10,12,16,18-nonaene trifluoroacetate] | – | – | – | – | 8.06 | 7.12 | 6.10 | 6.15 | – | pIC50 ([4]; 90 μM ATP): 6.30 |
| CC(=O)N1CCCC(C(=O)Nc2ccc3cc2CCc2cccc(c2)Nc2ncc(Cl)c(n2)N3)C1 (stereo not drawn) [Example A47, 1-Acetyl-N-[6-chloro-2,4,8,22-tetraazatetracyclo[14.3.1.1(3,7).1(9,13)]docosa-1(20),3(22),4,6,9(21),10,12,16,18-nonaen-12-yl]piperidine-3-carboxamide trifluoroacetate] | – | – | – | – | 8.16 | 7.41 | 7.60 | 7.77 | 26% | – |
